Laboratory results taken from patent US20120190666A1, “Heteroaryl Compounds as PIKK Inhibitors” (Amgen Inc., priority 2009, published 2012).

Legend:
[1] = target: mTOR (Homo sapiens, UniProt P42345); test: mTOR LanthaScreen (TR-FRET, phosphorylation of 4EBP1); type: biochemical; conditions: phosphorylation of GFP-4E-BP1, 10 μM ATP, 90 minutes
Description: The mTOR LanthaScreen is a TR-FRET assay measuring the phosphorylation of mTOR's substrate 4EBP1. 384 well compound plates were prepared containing 1 μl of compound per well starting at 5 mM and diluted 1:2 across the row, resulting in a 22 well serial dilution. 24 μl of assay buffer (Invitrogen, PV4794) with 2 mM DTT was added to the compound plate in rows 1-24 using the VELOCITY 11™ VPREP™ 384 ST resulting in a DMSO concentration of 4%. The compound plate was mixed and 2.5 μl of serially diluted compound or controls was added to the assay plate (Costar, 3658).
The assay was conducted on the PerkinElmer® FlexDrop PLUS. A 5 μl mix of 800 nM GFP-4E-BP1 (Invitrogen, PV4759) and 20 μM ATP (Amgen) was added to rows 1-24. 2.5 μl of 0.6 μg/ml of mTOR Enzyme (Amgen) was added to rows 1-23. 2.5 μl of assay buffer was added to row 24 for the low control. The final concentration of the compounds was 50 μM serially diluted to 23.84 pM in 1% DMSO. […] The final concentrations in the assay reagents were 400 nM GFP-4E-BP1, 10 μM of ATP and 0.15 μg/ml of mTOR enzyme. The compound, enzyme, and substrate were incubated for 90 minutes. At this point, 10 μl of stop solution was added (20 mM Tris, pH 7.5 (Invitrogen, 15567-027), 0.02% Sodium Azide (Teknova, S0208), 0.01% NP-40 (Roche, 11754599001), 20 mM EDTA (Invitrogen, 15575-038) and 4 nM of Tb-anti-p4E-BP1 (Invitrogen, PV4758)) for a final concentration of 2 nM of Tb-anti-p4E-BP1.
Sixty minutes later the plates were read on the PerkinElmer® EnVision™ 2103 Multilable Reader using the Excitation filter 340 nm and the Emission filters 520 nm and 495 nm.

[2] = system: phosphorylation of Akt at Serine 473 in U87 MG cells; test: pAkt AlphaScreen (U87 cell); type: cell-based; conditions: Homo sapiens, U-87 MG, 2 h; pAkt at Serine 473, U87 MG cells, two hours with compound
Outline: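 U87 MG cells (5K per well, plated overnight) treated 2 h at 37 °C with compound, 25 μM to 11.9 pM final in 0.5% DMSO. Lysates assayed for Akt Ser473 phosphorylation with SureFire AlphaScreen, incubated overnight at room temperature; IC50 from percent of control.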

Structure (SMILES)	IC50 [1]	IC50 [2]
Cc1nc(N)cc(-c2c(Nc3ccn(C)n3)nc3ccc(-c4cccc(S(C)(=O)=O)c4)cn23)n1 [Cpd 65, 3-(6-amino-2-methyl-4-pyrimidinyl)-N-(1-methyl-1H-pyrazol-3-yl)-6-(3-(methylsulfonyl)phenyl)imidazo[1,2-a]pyridin-2-amine]	340 nM	380 nM
CC(=O)n1ccc(Nc2nc3cccnn3c2-c2cc(N)nc(C)n2)n1 [Cpd 67, N-(1-acetyl-1H-pyrazol-3-yl)-3-(6-amino-2-methyl-4-pyrimidinyl)imidazo[1,2-b]pyridazin-2-amine]	10 nM	10 nM
COCCOc1ccc2nc(Nc3cc[nH]n3)c(-c3cc(N)nc(C)n3)n2n1 [Cpd 69, 3-(6-amino-2-methyl-4-pyrimidinyl)-6-(2-methoxyethoxy)-N-1H-pyrazol-3-ylimidazo[1,2-b]pyridazin-2-amine]	4 nM	1 nM
CNc1cc(-c2c(Nc3cc[nH]n3)nc3ccc(N4CCOCC4)nn23)nc(C)n1 [Cpd 72, 3-(2-methyl-6-(methylamino)-4-pyrimidinyl)-6-(4-morpholinyl)-N-1H-pyrazol-3-ylimidazo[1,2-b]pyridazin-2-amine]	40 nM	3 nM
Cc1nc(N)cc(-c2c(Nc3cc[nH]n3)nc3ccc(OCCN4CCCC4)nn23)n1 [Cpd 73]	50 nM	70 nM
Cc1nc(NC(=O)N(C)C)cc(-c2c(Nc3cc[nH]n3)nc3cccnn23)n1 [Cpd 75, 1,1-dimethyl-3-(2-methyl-6-(2-(1H-pyrazol-3-ylamino)imidazo[1,2-b]pyridazin-3-yl)-4-pyrimidinyl)urea]	1420 nM	790 nM
Cc1nc(NC(=O)N2CCN(C)CC2)cc(-c2c(Nc3cc[nH]n3)nc3cccnn23)n1 [Cpd 77, 4-methyl-N-(2-methyl-6-(2-(1H-pyrazol-3-ylamino)imidazo[1,2-b]pyridazin-3-yl)-4-pyrimidinyl)-1-piperazinecarboxamide]	2720 nM	1640 nM
Cc1nc(NCC#N)cc(-c2c(Nc3cc[nH]n3)nc3cccnn23)n1 [Cpd 90]	30 nM	20 nM
Cc1nc(NC(=O)CN(C)C)cc(-c2c(Nc3ccn(C)n3)nc3cccnn23)n1 [Cpd 92]	780 nM	180 nM
Cc1nc(N)nc(-c2c(Nc3cc[nH]n3)nc3ccc(C4=CCN(C(=O)OC(C)(C)C)CC4)cn23)n1 [Cpd 97, tert-butyl 4-(3-(4-amino-6-methyl-1,3,5-triazin-2-yl)-2-(1H-pyrazol-3-ylamino)imidazo[1,2-a]pyridin-6-yl)-3,6-dihydro-1(2H)-pyridinecarboxylate]	16 nM	30 nM
CNC(=O)c1ccc(-c2ccc3nc(Nc4cc[nH]n4)c(-c4nc(C)nc(N)n4)n3c2)cc1F [Cpd 99, 4-(3-(4-amino-6-methyl-1,3,5-triazin-2-yl)-2-(1H-pyrazol-3-ylamino)imidazo[1,2-a]pyridin-6-yl)-2-fluoro-N-methylbenzamide]	4 nM	10 nM
CC(=O)NCc1ccc(-c2ccc3nc(Nc4cc[nH]n4)c(-c4nc(C)nc(N)n4)n3c2)cc1 [Cpd 100, N-(4-(3-(4-amino-6-methyl-1,3,5-triazin-2-yl)-2-(1H-pyrazol-3-ylamino)imidazo[1,2-a]pyridin-6-yl)benzyl)acetamide]	1 nM	10 nM
Cc1nc(N)nc(-c2c(Nc3cc[nH]n3)nc3ccc(-c4ccoc4)cn23)n1 [Cpd 105, 3-(4-amino-6-methyl-1,3,5-triazin-2-yl)-6-(3-furanyl)-N-1H-pyrazol-3-ylimidazo[1,2-a]pyridin-2-amine]	14 nM	50 nM
Cc1nc(N)nc(-c2c(Nc3cc[nH]n3)nc3ccc(-c4ccc(F)cc4C)cn23)n1 [Cpd 107, 3-(4-amino-6-methyl-1,3,5-triazin-2-yl)-6-(4-fluoro-2-methylphenyl)-N-1H-pyrazol-3-ylimidazo[1,2-a]pyridin-2-amine]	40 nM	130 nM
CSc1cccc(-c2ccc3nc(Nc4cc[nH]n4)c(-c4nc(C)nc(N)n4)n3c2)c1 [Cpd 109, 3-(4-amino-6-methyl-1,3,5-triazin-2-yl)-6-(3-(methylsulfanyl)phenyl)-N-1H-pyrazol-3-ylimidazo[1,2-a]pyridin-2-amine]	50 nM	220 nM
CC(=O)Nc1cccc(-c2ccc3nc(Nc4cc[nH]n4)c(-c4nc(C)nc(N)n4)n3c2)c1 [Cpd 114, N-(3-(3-(4-amino-6-methyl-1,3,5-triazin-2-yl)-2-(1H-pyrazol-3-ylamino)imidazo[1,2-a]pyridin-6-yl)phenyl)acetamide]	10 nM	30 nM
Cc1nc(N)nc(-c2c(Nc3cc[nH]n3)nc3ccc(-c4cccc(NC(=O)C5CC5)c4)cn23)n1 [Cpd 115, N-(3-(3-(4-amino-6-methyl-1,3,5-triazin-2-yl)-2-(1H-pyrazol-3-ylamino)imidazo[1,2-a]pyridin-6-yl)phenyl)cyclopropanecarboxamide]	3 nM	40 nM
Cc1nc(NC(=O)C2CC2)cc(-c2c(Nc3cc[nH]n3)nc3cccnn23)n1 [Cpd 120]	290 nM	110 nM
COCC(=O)Nc1cc(-c2c(Nc3ccn(C)n3)nc3cccnn23)nc(C)n1 [Cpd 123, 2-methoxy-N-(2-methyl-6-(2-((1-methyl-1H-pyrazol-3-yl)amino)imidazo[1,2-b]pyridazin-3-yl)-4-pyrimidinyl)acetamide]	140 nM	150 nM
Cc1nc(NC(=O)CC#N)cc(-c2c(Nc3ccn(C)n3)nc3ccccn23)n1 [Cpd 126, 2-cyano-N-(2-methyl-6-(2-((1-methyl-1H-pyrazol-3-yl)amino)imidazo[1,2-a]pyridin-3-yl)-4-pyrimidinyl)acetamide]	690 nM	220 nM
Cc1nc(NC(=O)CC(F)(F)F)cc(-c2c(Nc3ccn(C)n3)nc3cccnn23)n1 [Cpd 134, 3,3,3-trifluoro-N-(2-methyl-6-(2-((1-methyl-1H-pyrazol-3-yl)amino)imidazo[1,2-b]pyridazin-3-yl)-4-pyrimidinyl)propanamide]	820 nM	210 nM
Cc1nc(Nc2ccc(N3CCOC(C)C3)nn2)cc(-c2c(Nc3cc[nH]n3)nc3cccnn23)n1 (centres unmarked) [Cpd 140, 3-(2-methyl-6-((6-(2-methyl-4-morpholinyl)-3-pyridazinyl)amino)-4-pyrimidinyl)-N-1H-pyrazol-3-ylimidazo[1,2-b]pyridazin-2-amine]	110 nM	90 nM
Cc1nc(N)cc(-c2c(Nc3cccc(N4CCN(C)CC4)c3)nc3cccnn23)n1 [Cpd 151, 3-(6-amino-2-methyl-4-pyrimidinyl)-N-(3-(4-methyl-1-piperazinyl)-phenyl)imidazo[1,2-b]pyridazin-2-amine]	430 nM	5380 nM
Cc1nc(N)nc(-c2c(Nc3cc[nH]n3)nc3ccc(Nc4ccncc4)cn23)n1 [Cpd 166]	25 nM	450 nM
Cc1nc(N)nc(-c2c(Nc3cc[nH]n3)nc3ccc(-c4ccc5c(c4)CCNC5=O)cn23)n1 [Cpd 175, 6-(3-(4-amino-6-methyl-1,3,5-triazin-2-yl)-2-(1H-pyrazol-3-ylamino)imidazo[1,2-a]pyridin-6-yl)-3,4-dihydro-1(2H)-isoquinolinone]	2 nM	30 nM
